# Measured values: patent publication US7662862B2, “5-HT7 receptor antagonists” (Laboratorios Del Dr. Esteve, S.A., priority 2004, dated 2010)
# Structures can show the parent of a compound that is named as a salt.
# Biological target: Cloned Human Serotonin Receptor, Subtype 7 (h5HT7) (Homo sapiens, UniProt P34969)
# Assay: Radioligand binding assay, [125I]LSD, cloned human 5-HT7 receptor expressed in CHO cells (Flashplate)
# Conditions: radioligand [125I]LSD 0.82 nM, 240 min at room temperature, triplicate, read-out: 5-HT7 IC-50
# Protocol: Biological Assays Radioligand Binding
# Radioligand binding assays were performed using the Cloned Human Serotonin Receptor, Subtype 7 (h5HT7), expressed in CHO cells, coated on Flashplate (Basic FlashPlate Cat.: SMP200) from PerkinElmer (Cat.: 6120512). The protocol assay was essentially the recommended protocol in the Technical Data Sheet by PerkinEmer Life and Analytical Sciences. The Mass membrane protein/well was typically 12 μg and the Receptor/well was about 9-10 fmoles. The Flashplate were let equilibrate at room temperature for one hour before the addition of the components of the assay mixture. The binding buffer was: 50 mM Tris-HCl, pH 7.4, containing 10 mM MgCl2, 0.5 mM EDTA and 0.5% BSA. The radioligand was [^125I]LSD at a final concentration of 0.82 nM. Nonspecific binding was determined with 50 μM of Clozapine. The assay volume was 25 μl. TopSeal-A were applied onto Flashplate microplates and they were incubated at room temperature for 240 minutes in darkness. The radioactivity were quantified by liquid scintillation spectrophotometry (Wallac 1450 Microbeta Trilux) with a count delay of 4 minutes prior to counting and a counting time of 30 seconds per well. Competition binding data were analyzed by using the LIGAND program (Munson and Rodbard, LIGAND: A versatile, computerized approach for characterization of ligand-binding systems. Anal. Biochem. 107: 220-239, 1980) and assays were performed in triplicate determinations for each point.
# Sequence of Cloned Human Serotonin Receptor, Subtype 7 (h5HT7) (P34969 whole entry): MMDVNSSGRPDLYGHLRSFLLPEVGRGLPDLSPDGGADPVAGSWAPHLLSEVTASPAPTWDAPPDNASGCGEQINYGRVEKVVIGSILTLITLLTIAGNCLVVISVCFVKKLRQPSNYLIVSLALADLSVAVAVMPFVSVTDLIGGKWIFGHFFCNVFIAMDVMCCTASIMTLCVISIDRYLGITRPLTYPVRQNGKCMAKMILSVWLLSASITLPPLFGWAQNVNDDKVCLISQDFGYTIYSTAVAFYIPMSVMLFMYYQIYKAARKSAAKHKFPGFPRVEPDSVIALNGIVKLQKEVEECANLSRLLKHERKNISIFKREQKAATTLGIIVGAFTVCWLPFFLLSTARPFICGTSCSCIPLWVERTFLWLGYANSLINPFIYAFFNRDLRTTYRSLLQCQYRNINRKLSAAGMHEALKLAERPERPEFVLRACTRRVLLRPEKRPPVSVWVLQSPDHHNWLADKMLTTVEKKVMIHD
row,Compound,IC50 [nM]
1,"CCN(CCCN1CCc2cc(OC)c(OC)c3c2C1CC3)S(=O)(=O)c1cc(Cl)ccc1Cl (centres unmarked) [Compound 80, 2,5-Dichloro-N-[3-(7,8-dimethoxy-2,2a,4,5-tetrahydro-1H-3-aza-acenaphthylen-3-yl)-propyl]-N-ethyl-benzene sulfonamide hydrochloride]",6.2
2,"CCN(CCCN1CCc2cccc3c2C1CC3)S(=O)(=O)c1cccc2ccccc12 (centres unmarked) [Compound 87, Naphthalene-1-sulfonic acid ethyl-[3-(2,2a,4,5-tetrahydro-1H-3-aza-acenaphthylen-3-yl)-propyl]-amide hydrochloride]",20.3
3,"CCN(CCCN1CCc2cccc3c2C1CC3)S(=O)(=O)c1cccc(C)c1 (centres unmarked) [Compound 88, N-Ethyl-3-methyl-N-[3-(2,2a,4,5-tetrahydro-1H-3-aza-acenaphthylen-3-yl)-propyl]-benzenesulfonamide hydrochloride]",4.5
4,"CCN(CCCN1CCc2cccc3c2C1CC3)S(=O)(=O)c1ccc(C)cc1 (centres unmarked) [Compound 89, N-Ethyl-4-methyl-N-[3-(2,2a,4,5-tetrahydro-1H-3-aza-acenaphthylen-3-yl)-propyl]-benzenesulfonamide hydrochloride]",6.7
5,"CCN(CCCN1CCc2cc(OC)c(OC)c3c2C1CC3)S(=O)(=O)c1ccccc1Cl (centres unmarked) [Compound 111, 2-Chloro-N-[3-(7,8-dimethoxy-2,2a,4,5-tetrahydro-1H-3-aza-acenaphthylen-3-yl)-propyl]-N-ethyl-benzenesulfonamide hydrochloride]",8
